Test results from the NIST ThermoML archive (doi:10.1016/j.jct.2011.12.015).
Numbers after ± are expanded uncertainties.

Key:
[1] = Molar enthalpy of transition or fusion; conditions: Crystal; DSC
[2] = molar heat capacity at constant pressure; conditions: 101.33 kPa, Small sample (50 mg) DSC
[3] = Crystal; DTA

O=C(O)c1ccccc1 [benzoic acid]
Conditions	Molar enthalpy of transition or fusion [kcal/mol]	Normal melting temperature [°C]
[1]	4.02 ± 0.124	–
[3]	–	121.80 ± 0.5

[2]
Conditions	molar heat capacity at constant pressure [J/K/mol]
281.06 K, Crystal	137.39 ± 28
287.01 K, Crystal	140.07 ± 28
293.02 K, Crystal	142.88 ± 29
299 K, Crystal	145.2 ± 29
305.01 K, Crystal	147.4 ± 30
311.02 K, Crystal	149.72 ± 30
317 K, Crystal	152.16 ± 31
323.03 K, Crystal	154.48 ± 31
329.02 K, Crystal	156.93 ± 32
335.02 K, Crystal	159.49 ± 32
341.01 K, Crystal	161.93 ± 32
347.02 K, Crystal	164.38 ± 33
353 K, Crystal	166.7 ± 33
359.01 K, Crystal	168.89 ± 34
365.01 K, Crystal	171.21 ± 34
369.32 K, Crystal	172.8 ± 35
407.4 K, Liquid	230.44 ± 46
409 K, Liquid	231.42 ± 46
410.6 K, Liquid	232.15 ± 47
413.2 K, Liquid	233.01 ± 47
414.8 K, Liquid	233.5 ± 47
416.5 K, Liquid	233.74 ± 47
418 K, Liquid	233.98 ± 47
419.6 K, Liquid	234.35 ± 47
421.2 K, Liquid	234.72 ± 47
422.8 K, Liquid	235.08 ± 47
424.4 K, Liquid	235.45 ± 47
426 K, Liquid	235.82 ± 47
427.6 K, Liquid	236.06 ± 47
429.2 K, Liquid	236.43 ± 47
430.8 K, Liquid	236.79 ± 48
432 K, Liquid	237.16 ± 48

CCCCOC(=O)c1ccc(O)cc1 [butyl 4-hydroxybenzoate]
Conditions	Molar enthalpy of transition or fusion [kcal/mol]	Normal melting temperature [°C]
[1]	6.1 ± 0.177	–
[3]	–	67.34 ± 0.5

[2]
Conditions	molar heat capacity at constant pressure [J/K/mol]
291.02 K, Crystal	264.15 ± 53
293.6 K, Crystal	266.09 ± 53
296.12 K, Crystal	268.23 ± 54
298.7 K, Crystal	270.36 ± 54
301.32 K, Crystal	272.5 ± 55
303.91 K, Crystal	274.64 ± 55
306.52 K, Crystal	276.58 ± 56
309.1 K, Crystal	278.72 ± 56
311.71 K, Crystal	281.05 ± 56
314.32 K, Crystal	283.18 ± 57
316.9 K, Crystal	285.32 ± 57
319.51 K, Crystal	287.65 ± 58
322.12 K, Crystal	289.79 ± 58
324.73 K, Crystal	292.31 ± 59
328.33 K, Crystal	296.2 ± 59
329.85 K, Crystal	298.33 ± 60
330.99 K, Crystal	299.89 ± 60
353.41 K, Liquid	386.9 ± 77
355.11 K, Liquid	388.45 ± 78
356.8 K, Liquid	389.04 ± 78
358.41 K, Liquid	389.81 ± 78
360.1 K, Liquid	390.4 ± 78
361.82 K, Liquid	391.17 ± 78
363.51 K, Liquid	391.76 ± 78
365.21 K, Liquid	392.53 ± 79
366.81 K, Liquid	392.92 ± 79
368.41 K, Liquid	393.7 ± 79
370.1 K, Liquid	394.09 ± 79
371.82 K, Liquid	394.67 ± 79
373.51 K, Liquid	395.25 ± 79
375.2 K, Liquid	395.83 ± 79
376.92 K, Liquid	396.42 ± 79
378.61 K, Liquid	397 ± 80
379.87 K, Liquid	397.39 ± 80
